Where two headings read alike, the source gives them in different places.
Assays:
Pseudomonas aeruginosa = assay: MIC of ceftazidime-resistant P. aeruginosa strains, microdilution according to ISO guidelines; type: cell-based
Procedure: (§1) Seven well-characterized ceftazidime-resistant Pseudomonas aeruginosa strains, obtained from a variety of clinically relevant sources, were used in the experiments as shown in Table 1. MICs were taken from an earlier in vitro checkerboard study (Berkhout & Mouton 2013 CAZ-AVI-M1-061) and were determined by microdilution according to the ISO-guidelines (ISO 2006). This method is CLSI compatible.
as §1, with “[…].” for “Table 1.”, “determined in” for “taken from”, “(AstraZeneca study report #” for “(Berkhout & Mouton 2013”

[1] = Serum and ELF pharmacokinetics of ceftazidime regimens (human simulated and directed ELF fT>MIC) in infected mice; type: in vivo, female ICR mice; conditions: MICs of 32 μg/mL; ceftazidime directed ELF fT>MIC regimen
Procedure: Confirmatory pharmacokinetic studies were undertaken in infected mice and pharmacodynamic analyses and an assessment of ELF fT>MIC was made from the resulting concentration-time profile.
It has been observed in surveillance studies that the MIC90 for ceftazidime-avibactam against P. aeruginosa is 8 μg/mL (10-12). Given this, there are few isolates with higher MICs and the number that would grow within the murine lung infection model is even less. […] Doses of the previous humanized regimen described above were […] throughout the dosing period and further pharmacokinetic studies were performed. […] Mice were euthanized and serum and BAL samples were collected, as described above, at predetermined times.

P. aeruginosa [2] = assay: Initial MIC, microbroth dilution (CLSI), avibactam 4 mg/L; type: cell-based; conditions: Pseudomonas aeruginosa
Procedure: (§2) All MIC determinations including those performed in the checkerboard assay were done in cation-adjusted Mueller-Hinton broth (purchased from Becton Dickinson, Oxford UK).
(§3) Initial MIC data were determined by microbroth dilution methods as recommended by CLSI (2012b). Checkerboards were made in accordance with the method given by Pillai et. al., ? Antimicrobial Combinations in Antibiotics, LABORATORY MEDICINE (Lorian Ed., 3rd Ed. (2003)) p. 365-440 as per standard microbroth dilution tests but with agents in combination. […] A final avibactam concentration of 4 mg/L was used throughout the study. Antibacterial agents were combined into microtitre plates using the Evolution III liquid handling system.

K. pneumoniae = assay: as above; type: cell-based; conditions: Klebsiella pneumoniae
Procedure: as §2, §3

P. aeruginosa [3] = assay: MIC of the P. aeruginosa isolates used in the in vivo efficacy studies; type: cell-based; conditions: Pseudomonas aeruginosa
[4] = test system: all isolates (Enterobacteriaceae, P. aeruginosa, S. aureus, E. faecalis); assay: Checkerboard assay, mean FICI over all isolates; type: cell-based
Procedure: as §2, §3
Checkerboard plates were inoculated and incubated in accordance with CLSI guidelines (2012b) at 35±2° C. in ambient air for 16-20 h. MICs were recorded the following day as the lowest concentration or combination of concentrations required to inhibit all visible growth. From the MIC data, FICIs were calculated for each checkerboard according to the method of Meletiadis et. al., Defining Fractional Inhibitory Concentration Index Cutoffs for Additive Interactions Based on Self-Drug Additive Combinations, Monte Carlo Simulation Analysis and in vitro-in vivo Correlation Data for Antifungal Drug Combinations Against Aspergillus fumigatus, AAC 54:602-09 (2010).
FICI=FICA+FICB=(CA/MICA)+(CB/MICB)
As each checkerboard gives a number of FICI values, an arithmetic mean is calculated from all values to give the mean FICI for two agents combined against one isolate. Mean FICIs were interpreted by the following criteria given by Odds (2003) which are now the accepted criteria by most journals: […]

E. faecalis = assay: Initial MIC, microbroth dilution (CLSI), avibactam 4 mg/L; type: cell-based
Text: (§4) All MIC determinations including those performed in the checkerboard assay were done in cation-adjusted Mueller-Hinton broth (purchased from Becton Dickinson, Oxford UK). […]

E. coli = assay: as above; type: cell-based; conditions: Escherichia coli, read-out: MIC
Text: as §4

E. cloacae = assay: as above; type: cell-based; conditions: Enterobacter cloacae
Text: as §4

[5] = with Col, Gram-negative isolates
[6] = with Lzd, Gram-positive isolates
[7] = with Van, Gram-positive isolates

CC(C)(O/N=C(\C(=O)N[C@@H]1C(=O)N2C(C(=O)[O-])=C(C[n+]3ccccc3)CS[C@H]12)c1csc(N)n1)C(=O)O [ceftazidime, (6R,7R)-7-[[(2Z)-2-(2-amino-1,3-thiazol-4-yl)-2-(1-hydroxy-2-methyl-1-oxopropan-2-yl)oxyiminoacetyl]amino]-8-oxo-3-(pyridin-1-ium-1-ylmethyl)-5-thia-1-azabicyclo[4.2.0]oct-2-ene-2-carboxylate pentahydrate]
MIC (Pseudomonas aeruginosa; P. aeruginosa isolate no. 1, CAZ-AVI determined at 4 mg/L avibactam): 128 µg/mL
MIC (Pseudomonas aeruginosa; P. aeruginosa isolate no. 11, CAZ-AVI determined at 4 mg/L avibactam): 128 µg/mL
MIC (Pseudomonas aeruginosa; Pseudomonas aeruginosa): 128 µg/mL
MIC (Pseudomonas aeruginosa; Pseudomonas aeruginosa, P. aeruginosa isolate no. 3, CAZ-AVI determined at 4 mg/L avibactam, read-out: MIC): 64 µg/mL
MIC (Pseudomonas aeruginosa; Pseudomonas aeruginosa, P. aeruginosa isolate no. 7, CAZ-AVI determined at 4 mg/L avibactam, read-out: MIC): 64 µg/mL
MIC (Pseudomonas aeruginosa; Pseudomonas aeruginosa, P. aeruginosa isolate no. 18, CAZ-AVI determined at 4 mg/L avibactam, read-out: MIC): 32 µg/mL
MIC (Pseudomonas aeruginosa; Pseudomonas aeruginosa, P. aeruginosa isolate no. 19, CAZ-AVI determined at 4 mg/L avibactam, read-out: MIC): 64 µg/mL
ELF fT>MIC [1]: 12%
MIC (P. aeruginosa [2]; isolate 16 P. aeruginosa Basal MICs, read-out: MIC): 1 µg/mL
MIC (P. aeruginosa [2]; isolate 17 P. aeruginosa Derepressed AmpC, read-out: MIC): 8 µg/mL
MIC (P. aeruginosa [2]; isolate 18 P. aeruginosa Derepressed AmpC, read-out: MIC): 64 µg/mL
MIC (P. aeruginosa [2]; isolate 19 P. aeruginosa PER, read-out: MIC): 128 µg/mL
MIC (P. aeruginosa [2]; isolate 20 P. aeruginosa KPC-2): 128 µg/mL
MIC (P. aeruginosa [2]; isolate 21 P. aeruginosa KPC-2, read-out: MIC): 64 µg/mL
MIC (K. pneumoniae; isolate 9 K. pneumoniae Basal MICs, read-out: MIC): 0.12 µg/mL
MIC (K. pneumoniae; isolate 10 K. pneumoniae TEM-4, read-out: MIC): 32 µg/mL
MIC (K. pneumoniae; isolate 11 K. pneumoniae CTX-M-15, read-out: MIC): 32 µg/mL
MIC (K. pneumoniae; isolate 12 K. pneumoniae SHV-12, read-out: MIC): 64 µg/mL
MIC (K. pneumoniae; isolate 13 K. pneumoniae KPC-3): 128 µg/mL
MIC (K. pneumoniae; isolate 14 K. pneumoniae KPC-3, read-out: MIC): 16 µg/mL
MIC (K. pneumoniae; isolate 15 K. pneumoniae KPC-2, read-out: MIC): 64 µg/mL
MIC (P. aeruginosa [3]; P. aeruginosa PSA 1-25): 128 µg/mL
MIC (P. aeruginosa [3]; P. aeruginosa PSA 1-29): 32 µg/mL
MIC (P. aeruginosa [3]; P. aeruginosa PSA 2-69): 64 µg/mL
MIC (P. aeruginosa [3]; P. aeruginosa PSA 3-9): > 128 µg/mL
MIC (P. aeruginosa [3]; P. aeruginosa PSA 4-32): 32 µg/mL
MIC (P. aeruginosa [3]; P. aeruginosa PSA 4-36): 64 µg/mL
MIC (P. aeruginosa [3]; P. aeruginosa PSA 4-39): 32 µg/mL
MIC (P. aeruginosa [3]; P. aeruginosa PSA 4-84): 64 µg/mL
MIC (P. aeruginosa [3]; P. aeruginosa PSA 7-6): 128 µg/mL
MIC (P. aeruginosa [3]; P. aeruginosa PSA 8-16): 64 µg/mL
MIC (P. aeruginosa [3]; P. aeruginosa PSA 11-54): 32 µg/mL
MIC (P. aeruginosa [3]; P. aeruginosa PSA 14-28): 128 µg/mL
MIC (P. aeruginosa [3]; P. aeruginosa PSA 22): 64 µg/mL
MIC (P. aeruginosa [3]; P. aeruginosa PSA 24-2): 32 µg/mL
MIC (P. aeruginosa [3]; P. aeruginosa PSA 28-19): 128 µg/mL
MIC (P. aeruginosa [3]; P. aeruginosa PSA 37-8): 64 µg/mL
MIC (P. aeruginosa [3]; P. aeruginosa PSA 856): 8 µg/mL
MIC (P. aeruginosa [3]; P. aeruginosa PSA 968): 32 µg/mL
MIC (P. aeruginosa [3]; P. aeruginosa PSA 971): 16 µg/mL
MIC (P. aeruginosa [3]; P. aeruginosa PSA 1382): 128 µg/mL
MIC (P. aeruginosa [3]; P. aeruginosa PSA 1383): 64 µg/mL
MIC (P. aeruginosa [3]; P. aeruginosa PSA 1384): 64 µg/mL
MIC (P. aeruginosa [3]; P. aeruginosa PSA 1386): 128 µg/mL
MIC (P. aeruginosa [3]; P. aeruginosa PSA 1387): 32 µg/mL
MIC (P. aeruginosa [3]; P. aeruginosa PSA 1388): 128 µg/mL
MIC (P. aeruginosa [3]; P. aeruginosa PSA 1389): 64 µg/mL
MIC (P. aeruginosa [3]; P. aeruginosa PSA 1391): 128 µg/mL
MIC (P. aeruginosa [3]; P. aeruginosa PSA 1394): 64 µg/mL
interaction, synergistic or antagonistic, with any other antibacterial agent ([4]; tobramycin, levofloxacin, vancomycin, linezolid, tigecycline, colistin): No interaction
Mean FICI range high [4, 5]: 1.66
Mean FICI range low [4, 5]: 0.85
Mean FICI range high ([4]; with Lev, all isolates): 1.33
Mean FICI range low ([4]; with Lev, all isolates): 0.78
Mean FICI range high [4, 6]: 1.64
Mean FICI range low [4, 6]: 0.99
Mean FICI range high ([4]; with Tig, all isolates): 1.99
Mean FICI range low ([4]; with Tig, all isolates): 0.73
Mean FICI range high ([4]; with Tob, all isolates): 1.60
Mean FICI range low ([4]; with Tob, all isolates): 0.64
Mean FICI range high [4, 7]: 1.63
Mean FICI range low [4, 7]: 0.99
MIC (E. faecalis; Enterococcus faecalis): 256 µg/mL
MIC (E. faecalis; Enterococcus faecalis, isolate 25 E. faecalis Basal MICs, read-out: MIC): > 512 µg/mL
MIC (E. faecalis; isolate 27 E. faecalis Basal MICs): 256 µg/mL
MIC (E. coli; isolate 5 E. coli CTX-M-15): 64 µg/mL
MIC (E. coli; isolate 6 E. coli TEM-4): 8 µg/mL
MIC (E. coli; isolate 7 E. coli SHV-12): 16 µg/mL
MIC (E. coli; isolate 8 E. coli SHV-2): 1 µg/mL
MIC (E. cloacae; isolate 1 E. cloacae Basal MICs, read-out: MIC): 0.12 µg/mL
MIC (E. cloacae; isolate 2 E. cloacae Derepressed AmpC): 256 µg/mL
MIC (E. cloacae; isolate 3 E. cloacae Derepressed AmpC): 128 µg/mL

Source: patent publication US20150374673A1, “Combination Therapy for the Treatment of Nosocomial Pneumonia” (priority 2013, published 2015)
